Experimental findings from US20120070486A1, “METHODS AND COMPOSITIONS RELATED TO PREFOLDIN AND ITS REGULATION” (priority 2007, published 2012) are described below.

For one data set, the system named is HeyA8-MDR cell line. As to the kind of experiment: docetaxel IC50 in chemoresistant HeyA8-MDR cell line. Type of data set: cell-based. The following applies: Homo sapiens.
The subject of the next data set is SKOV3-TR cell line. As to the kind of experiment: docetaxel IC50 in chemoresistant SKOV3-TR cell line. Type of data set: cell-based. The following applies: Homo sapiens, SKOV3TR.
For a further data set, the system named is HeyA8 cell line. As to the kind of experiment: docetaxel IC50 in chemosensitive parental HeyA8 cell line. Type of data set: cell-based. The following applies: Homo sapiens, HEY A8, one range printed for HeyA8 and SKOV3.
Another data set deals with SKOV3 cell line. As to the kind of experiment: docetaxel IC50 in chemosensitive parental SKOV3 cell line. Type of data set: cell-based. To be noted: Homo sapiens, SK-OV-3, one range printed for HeyA8 and SKOV3.
A further data set concerns PFDN4 mRNA. As to the kind of experiment: RT-PCR screen of siRNA mediated gene silencing of PFDN4 in SKOV3 cells. Type of data set: cell-based, human. The procedure:
RT-PCR: RT-PCR RNA was extracted from ovarian cancer cell lines using TRIzo10 (Invitrogen, Carlsbad, Calif.) as per manufacturer's instructions. 2 μg of total mRNA was reverse transcribed using the Superscript first strand kit (Superscript, Invitrogen, Carlsbad, Calif.), and 2 μL from each reaction was subjected to PCR using standard techniques. PFDN4 primers generated a 413 by product (PFDN4 forward: […] (SEQ ID NO:1); PFDN4 reverse: […] (SEQ ID NO:2)). GAPDH primers generated an approximately 800 by product (GAPDH forward:[…] (SEQ ID NO:3); GAPDH reverse: […] (SEQ ID NO:4)). Semi-quantitative cycling conditions were optimized to the following program: 98° C. for 2 minutes followed by 22 cycles at 95° C. for 30 seconds, 55° C. for 30 seconds and 72° C. for 60 seconds, followed by a final cycle at 72° C. for 5 minutes. PCR products were visualized by agarose gel electrophoresis.
RNA interference: PFDN4 siRNA (sense: […] (SEQ ID NO:6); antisense: […] (SEQ ID NO:7)) and AllStars Negative Control siRNA were purchased from Qiagen (Valencia, Calif.). HeyA8 and SKOV3 were grown to 50% confluence prior to transfection with control or PFDN4 siRNA using Lipofectamine 2000 (Invitrogen, Valencia, Calif.) following manufacturer's instruction. […] Coverslips were washed twice with PBS and finally mounted in anti-fade mounting media and then visualized by fluorescence microscopy. […]

The subject of a further data set is PFDN4 protein. As to the kind of experiment: siRNA mediated silencing of PFDN4 protein expression in SKOV3 cells (western blot). Type of data set: cell-based, human. The following applies: in vitro, by 48 hours. As for the experimental part:
Immunoprecipitation and Western Blot Analysis: Each 10 cm plate of cells was lysed in 1 mL NP-40 lysis buffer (50 mM Hepes, pH 7.25, 150 mM NaCl, […], 50 mM NaF, 2 mM EDTA, 1 mM sodium orthovanadate, 1% NP-40), supplemented with Roche complete protease inhibitors (Roche Diagnostics, Indianapolis, Ind.). Cell lysates were cleared by centrifugation at 14000 g for 15 minutes at 4° C. Protein concentration was determined using the BCA Protein Assay (Pierce Biotechnology, Rockford, Ill.). 1 mg total protein lysate was combined with 50 μL of 20% Protein A Sepharose CL4B beads (Amersham Biosciences, Piscataway, N.J.) and 1 μg of anti-PFDN4 antibody. […]
RNA interference: PFDN4 siRNA (sense: […] (SEQ ID NO:6); antisense: […] (SEQ ID NO:7)) and AllStars Negative Control siRNA were purchased from Qiagen (Valencia, Calif.). […] Coverslips were washed twice with PBS and finally mounted in anti-fade mounting media and then visualized by fluorescence microscopy.
To determine the effect of PFDN4 downregulation in ovarian cancer in vitro, the inventors utilized RNA interference (RNAi) technology to silence PFDN4 expression in ovarian cancer cells. […] Using an RT-PCR based screen, the inventors detected a decrease in PFDN4 mRNA within 4 hours following transfection, with greater than 90% silencing observed by 24 hours following transfection (FIG. 5).

The subject of data set [1] is microtubule cytoskeleton of SKOV3 cells. As to the kind of experiment: indirect immunofluorescent staining for α-tubulin of the microtubule cytoskeleton after siRNA transfection. Type of data set: cell-based, human. The following applies: 48 hours following transfection, fluorescent microscopy, compared to control siRNA. The procedure: RNA interference: PFDN4 siRNA (sense: […] (SEQ ID NO:6); antisense: […] (SEQ ID NO:7)) and AllStars Negative Control siRNA were purchased from Qiagen (Valencia, Calif.). HeyA8 and SKOV3 were grown to 50% confluence prior to transfection with control or PFDN4 siRNA using Lipofectamine 2000 (Invitrogen, Valencia, Calif.) following manufacturer's instruction. Cells were typically harvested for analysis 48-72 hours following transfection. Immunofluorescent staining HeyA8 and SKOV3 cells were grown on glass coverslips in 24-well plates for 24 hours prior to transfection with either control or PFDN4 siRNA, and cultured for an additional 48 hours. Media was then aspirated and replaced with 0.5 mL of 4% paraformaldehyde for 30 minutes. Cells were then incubated with 100 mM glycine for 5 minutes, washed once with PBS and then incubated with 0.2% TritonX-100 in PBS for 10 minutes. Coverslips were washed thrice in PBS and then blocked for 30 minutes in 10% goat serum in PBS. Coverslips were then incubated with a 1:2000 dilution of anti-α-tubulin antibodies for 1.5 hours at room temperature. Slides were washed three times with PBS and then incubated for 1 hour with Alexa 555-labelled anti-rabbit secondary antibodies. Coverslips were washed twice with PBS and finally mounted in anti-fade mounting media and then visualized by fluorescence microscopy. […]

One may read the IC50 as the concentration needed to halve the response being measured. Regarding `CC(=O)O[C@@]12CO[C@@H]1C[C@H](O)[C@@]1(C)C(=O)[C@H](O)C3=C(C)[C@@H](OC(=O)[C@H](O)[C@@H](NC(=O)OC(C)(C)C)c4ccccc4)C[C@@](O)([C@@H](OC(=O)c4ccccc4)[C@H]21)C3(C)C` [docetaxel], the IC50 in the data set on HeyA8-MDR cell line is at least 250 nM; in the data set on SKOV3-TR cell line it was at least 250 nM; in the data set with HeyA8 cell line, 1 to 6.2 nM; with SKOV3 cell line, 1 to 6.2 nM.
As for “PFDN4 siRNA: siRNA, sense UUCAGCGAGUGUUAGCAGATT (SEQ ID NO:6), antisense UCUGCUAACACCGCUGAATT (SEQ ID NO:7), purchased from Qiagen (chemistry not given here)”, in the data set on PFDN4 mRNA, the “time to detected decrease in PFDN4 mRNA following transfection” value was at most 4 h. For the same molecule, the “PFDN4 mRNA silencing” value in the data set on PFDN4 mRNA (by 24 hours following transfection) was “greater than 90%”. For the same molecule, the “down-regulation in PFDN4 protein production” value in the data set on PFDN4 protein is “detectable down-regulation”. Besides, the “morphology of microtubule cytoskeleton” value in data set [1] was “less organized (FIG. 7B) and more condensed”.
